In patent US10272144B2, “Compositions for and methods of treating and preventing targeting tumor associated carbohydrate antigens” (Board of Trustees of the University of Arkansas, priority 2013, dated 2019):
Several values for one entry are separate records, joined by “and”; a condition that tells them apart may be missing. Identical values can stand only once. Entries after “also recorded” stand apart in the source; their conditions may differ.

How the values were obtained:
HLA-DR = conditions: cited from earlier work
[1] = tested on: stage IV breast cancer patients; experiment: Phase I trial: clinical response (disease progression); type: in vivo, human; conditions: one line per subject, concurrent chemotherapy
Text: The P10s-PADRE vaccine was developed for, inter alia, treatment of breast cancer patients with high risk of disease relapse. In the Phase I trial, research participants were restricted to females with histological or cytological confirmed stage IV breast cancer. Women 18 years of age or older, of all races, with histologically or cytologically confirmed stage IV breast cancer were eligible, and subjects were enrolled after providing written, informed consent. Disease staging was done according to the American Joint Commission on Cancer (AJCC), sixth edition. The following eligibility criteria were used: The cancer may have been newly diagnosed metastatic or relapsed after primary or adjuvant therapy and must not have required a treatment change for 2 months. Treatments with anti-estrogen therapy or chemotherapy were allowed. The chemotherapy regimen could not contain steroids in the pre- or post-supportive-care medications. […] Subjects had to be immunocompetent as measured by responsiveness to two recall antigens by skin testing. […]

MCF-7 cells = experiment: Toxicity against MCF-7 cells; type: cell-based, human; conditions: other experiments
[2] = tested on: cancer cells (HCC1954 and MDA-MB-231); experiment: Immunized plasma toxicity on cancer cells (both cell lines); type: cell-based, human; conditions: one line per subject
Text: (§1) Medium in control wells contained 10% FBS.

ZR-75-1 cells = experiment: Toxicity against ZR-75-1 cells; type: cell-based, human; conditions: other experiments
[3] = tested on: multiple-antigen peptide (MAP) version of P10s; experiment: ELISA of anti-P10s antibodies in sera/plasma of vaccinated subjects; type: in vivo, human; conditions: for Immunized plasma binding to MAP (ELISA): one line per subject
Method: IgM and IgG fractions of serum antibodies from the immunized patient bind to MAP form of P10s in ELISA assays. ELISA plates were coated with 1 μg/well of the P10s MAP peptide in carbonate-bicarbonate buffer overnight. Serial dilutions were added after blocking wells in PBS containing 0.5% FBS and 0.2% Tween 20 for 1 h at 37° C. Serum dilutions were incubated for two hours at 37° C. After washing, wells were incubated with HRP-conjugated mouse anti-human IgM and IgG for 1 hour at 37° C., then substrate was added and the reaction was stopped after 20 minutes. Plates were read by an ELISA reader at […]. Titers were estimated from absorbance-versus-dilution curves by linear regression. The intercept of the regression line for each subject's pre-immune serum was defined as the absorbance cutoff for determining end-point titer for that subject, and the dilution where each sample's regression line crossed the subject's absorbance cutoff was defined to be the sample's end-point titer. Extrapolation beyond one dilution below the minimum or above the maximum actual dilutions was not allowed. This procedure normalized each subject's pre-immune titer to be 1:100, and subjects with a 10-fold or greater increase in end-point titer over the 1:100 titer are considered responders.
ELISA plates were coated with MAP version of P10s and reactivity of two-fold serial dilutions of pre- and post-immune sera was detected by HRP-conjugated anti-human IgG (FIG. 7A) and IgM (FIG. 7B). The endpoint titers shown in FIG. 7A and FIG. 7B were estimated from absorbance-versus-dilution curves by linear regression. The intercept of the regression line for each subject's pre-immune serum was the value used as the absorbance cutoff for determining end-point titer for that subject, and the dilution where each sample's regression line crossed the subject's absorbance cutoff was defined to be the sample's end-point titer. Extrapolation beyond one dilution below the minimum or above the maximum actual dilutions was not allowed. This procedure normalized each subject's pre-immune titer to be 1:100.
The presence of anti-P10s antibodies in the sera of patients before and after vaccination was assessed with ELISA. ELISA plates were coated with 1 μg/well of the multiple-antigen peptide (MAP) version of P10s in carbonate-bicarbonate buffer (Sigma-Aldrich, St. Louis, Mo.) overnight. Serial 2-fold dilutions of plasma and serum samples, from 1:100 (dilution step 0) to a final dilution of 1:12800 (dilution step 7), were added after blocking wells with PBS containing 0.5% FBS and 0.2% Tween 20 (Blocking buffer) for 1 h at 37° C. Serum dilutions in blocking buffer were incubated for two hours at 37° C. After washing, wells were incubated with HRP-conjugated mouse anti-human IgM and IgG (Sigma-Aldrich) for 1 hour at 37° C. Then Tetramethylbenzidine substrate (Sigma-Aldrich) was added and the reaction was stopped after 20 minutes. Plates were read using an ELISA reader at […].
The resulting absorbance-versus-dilution curves were used to estimate normalized endpoint titers as follows. (1) A linear regression of absorbance versus dilution step was performed on the serial dilutions of each sample from each subject, in which dilution steps were numbered as described above. (2) The intercept of the regression line for each subject's pre-immune sample was the value used as the absorbance cutoff for determining the endpoint titers of all samples collected from that subject. (3) The dilution step where each sample's regression line crossed the subject's absorbance cutoff was determined and called X(c), and the normalized endpoint titer was estimated from X(c) as Titer=1:(100*2^X(c)). This procedure normalized each subject's pre-immune titer to be 1:100. […]

NK cells [4] = experiment: NK cell activation in mice; type: in vivo
NK cells [5] = experiment: NK cell activation in vaccinated human patients; type: in vivo; conditions: human patients administered the vaccine
[6] = tested on: metastatic HER2+ Breast Cancer; experiment: Clinical course of patient with metastatic HER2+ breast cancer (PET scans); type: in vivo, human; conditions: one patient, on continued Vinorelbine and Trastuzumab; after initial increased PET uptake
MDA-MB-231 cells [7] = experiment: Apoptosis induction (annexin V/propidium iodide); type: cell-based, human; conditions: overnight incubation with sera; FIG. 16
Method: Cells were incubated with 10% FBS (control) or either pre-immune or post-immune sera overnight and then harvested and stained with annexin V-FITC (FL1) and propidium iodide (FL3). Quadrants J4, P4 and Q4 show apoptotic cells in control, pre-immune serum treated and post-immune serum treated cells, respectively.

HCC1954 cells [8] = experiment: Binding of serum IgG to HCC1954 cells (flow cytometry); type: cell-based, human; conditions: week 7 serum, 1:100 dilution; FIG. 14A
Method: (§2) HCC1954 cells were harvested with enzyme-free buffer, washed and incubated with pre-immune sera or post-immune sera collected from the patient at Week 7. Binding of IgG antibodies in the sera to HCC1954 cells was visualized with an FITC-conjugated mouse anti-human IgG. […] The dashed line histogram show binding of IgG from pre-immune serum to HCC1954 cells. The solid line histogram show binding of IgG from post-immune serum collected at week 7 to HCC1954 cells. 1:100 dilution of the serum was used for reactivity. FIG. 14B is a bar graph showing that serum from the patient collected 7 weeks post-immunization kills HCC1954 breast cancer cells in vitro. 1×10^4 cells were seeded in wells of 96-well plate in medium containing 10% FBS. […] Medium in control wells contained 10% FBS. Media were refreshed after 24 hours. 48 hours after addition of sera, supernatants were removed, cells fixed and stained with Crystal violet. Percentage of cytotoxicity was calculated based on cell number in control wells. Error bars represent SD based on three replications. The experiment was repeated three times. Two tail Student's t-test was used for comparison of means.

MCF-10A cells = experiment: Cytotoxicity of plasma on MCF-10A; type: cell-based, human; conditions: 10% plasma, 24 hours (up to 72 hours); non-tumorigenic line; FIG. 12
Method: Pictures were taken after 24 hours of incubation with 10% plasma of the indicated subjects.
as §1

HCC1954 cells [9] = experiment: Inhibition of migration of HCC1954 cells (transwell); type: cell-based, human; conditions: week 7 serum, 20 hours in transwells; FIG. 15
Method: Cells were starved overnight and then harvested and mixed with either pre-immune serum or postimmune serum. The cell-serum mixtures were incubated in transwells for 20 hours. The cells were then stained and those on the surface were wiped out. Migrated cells were then visualized under a light microscope and counted. Average over three replications with SD are shown.

HCC1954 cells [10] = experiment: Serum cytotoxicity on HCC1954 cells (Example 5 patient); type: cell-based, human; conditions: week 7 serum, 10%, 48 hours; FIG. 14B
Method: as §2

MDA-MB-231 cells [11] = experiment: Sensitization of tumor cells to docetaxel toxicity by post-immune serum; type: cell-based, human; conditions: 5 hours pre-incubation, docetaxel 24 hours; IC50 differs from FBS and pre-immune (P 6.21E-08, 0.002); FIG. 9
Method: MDA-MB-231 cells were cultured in RPMI medium containing 10% FBS overnight. Medium was then replaced with one that contained either pre-immune serum or post-immune serum. FBS was used as control. After 5 hours of incubation, docetaxel was added in serial dilutions into wells. 24 hours later wells were washed and live cells were fixed, stained and counted. Percentage of survival was calculated as the ratio of cell number at a given drug dose to the cell number at the “0” drug dose. Prism 5 software was used to fit dose response curves using survival data. IC50 of each curve was calculated.
MDA-MB-231 cells were cultured in RPMI medium containing 10% FBS overnight. Medium was then replaced with one that contained pre or post-immune sera. FBS was used as control. After 5 hours of incubation docetaxel was added in serial dilutions into wells. 24 hours later wells were washed and live cells were fixed, stained and counted. Percentage of survival was calculated as the ratio of cell number at a given drug dose to the cell number at the “0” drug dose. Prism 5 software was used to fit dose response curves using survival data. IC50 of each curve was calculated.

Substance: dAla-Lys-CHAla-Val-Ala-Ala-Trp-Thr-Leu-Lys-Ala-Ala-dAla [PADRE]
- number of the 16 most common types of HLA-DR with which complexes are formed (HLA-DR): at least 15

Substance: H-Trp-Arg-Tyr-Thr-Ala-Pro-Val-His-Leu-Gly-Asp-Gly-dAla-Lys-CHAla-Val-Ala-Ala-Trp-Thr-Leu-Lys-Ala-Ala-dAla-NH2 [P10s-PADRE]
- Disease Progression ([1]; 300 μg peptide per vaccination): Stable; also recorded: Progressed
- Disease Progression ([1]; 500 μg peptide per vaccination): Stable
- toxicity (MCF-7 cells): no toxicity
- Immunized plasma toxicity on cancer cells ([2]; 300 μg peptide per vaccination): Yes
- Immunized plasma toxicity on cancer cells ([2]; 500 μg peptide per vaccination, subject #5: high background toxicity in preimmune plasma): Yes (2×) and No†
- toxicity (ZR-75-1 cells): toxicity was observe
- Immunized plasma binding to MAP (ELISA) ([3]; 300 μg peptide per vaccination): Yes
- Immunized plasma binding to MAP (ELISA) ([3]; 500 μg peptide per vaccination): Yes
- normalized endpoint titers, higher dose cohort vs lower dose cohort ([3]; 500 μg vs 300 μg, FIG. 10): higher normalized endpoint titers
- anti-peptide IgG persistence ([3]; Example 5 patient): remained high
- anti-peptide IgM persistence ([3]; Example 5 patient): returned back to the baseline by week 19
- time course of anti-peptide IgM and IgG ([3]; Example 5 patient, FIG. 13): peaked at week seven
- IgG response to P10s MAP peptide form after immunization ([3]; all six subjects, FIG. 10): persistent IgG response
- IgG and IgM response to the vaccine ([3]; all subjects of Example 3, FIGS. 4, 5): All subjects displayed an IgG and IgM response
- increase of anti-peptide serum IgG normalized endpoint titer at week 7 compared to pre-immune ([3]; subject #2 (300 μg), lowest of range): 31 folds
- increase of anti-peptide serum IgG normalized endpoint titer at week 7 compared to pre-immune ([3]; subjects #5 and #6 (500 μg), highest of range): 256 folds
- persistence of anti-P10s titer ([3]; three subjects evaluated further): starts to drop one year after the last immunization
- NK cell activation (NK cells [4]): no NK activation
- NK cell activation (NK cells [5]): NK cells were activated
- lung lesions after vaccination [6]: improvement of their lung lesions
- apoptosis (MDA-MB-231 cells [7]): induced apoptosis
- binding of vaccine-induced serum to cells (HCC1954 cells [8]): bound
- toxicity of plasma (MCF-10A cells): No toxicity
- migration of cells (HCC1954 cells [9]): inhibited the migration
- cell death on incubation with post-immunization serum (HCC1954 cells [10]): significant stimulation of cell death
- effect of pre-incubation with post-immunization serum on docetaxel toxicity (MDA-MB-231 cells [11]): sensitized tumor cells to docetaxel toxicity
